We go through six molecules from publication PMC9937549 (Frontiers in tropical diseases, 2023).

The test system of one data set is host macrophage. Description: Host cell cytotoxicity in the same assay. It counts as cell-based. The note with it: abstract.
Data set [1] deals with intracellular parasites of Leishmania donovani. Description: Antileishmanial potency against visceral leishmaniasis. The note with it: read-out: EC50 (visceral leishmaniasis). It counts as cell-based.
Data set [2] concerns L. donovani intracellular amastigotes infecting THP-1 cells. Description: Intracellular amastigote assay. It counts as cell-based, Leishmania donovani. The following applies: for inhibition of parasite growth (primary screen): single point 10 μM, L. donovani amastigotes in THP-1; for EC50: read-out: Intracellular Amastigote EC50, Leishmania donovani, THP-1 host, 72 h.
Another data set has as its system host THP-1 macrophages. Briefly: GSK LD MAC host cell toxicity readout of inMac assay. It counts as cell-based. The following applies: read-out: LD MAC EC50; cytotoxicity against host THP-1 macrophages (GSK).
Another data set concerns L. major promastigotes. Briefly: Promastigote assay. It counts as cell-based. The following applies: read-out: Extracellular promastigote EC50; Leishmania major, 72 h.
In data set [3] the test system is L. donovani intracellular amastigotes infecting THP-1 macrophages. Briefly: GSK intramacrophage L. donovani assay. It counts as cell-based, Leishmania donovani. The following applies: read-out: LD AMMAC EC50; growth inhibition of L. donovani intracellular amastigotes infecting THP-1 macrophages (GSK).
The target of another data set is human serum albumin (Homo sapiens, UniProt P02768). Briefly: Human serum albumin. The note with it: immobilized HSA column. It counts as in vitro ADME.
human serum albumin, sequence (P02768 25-609): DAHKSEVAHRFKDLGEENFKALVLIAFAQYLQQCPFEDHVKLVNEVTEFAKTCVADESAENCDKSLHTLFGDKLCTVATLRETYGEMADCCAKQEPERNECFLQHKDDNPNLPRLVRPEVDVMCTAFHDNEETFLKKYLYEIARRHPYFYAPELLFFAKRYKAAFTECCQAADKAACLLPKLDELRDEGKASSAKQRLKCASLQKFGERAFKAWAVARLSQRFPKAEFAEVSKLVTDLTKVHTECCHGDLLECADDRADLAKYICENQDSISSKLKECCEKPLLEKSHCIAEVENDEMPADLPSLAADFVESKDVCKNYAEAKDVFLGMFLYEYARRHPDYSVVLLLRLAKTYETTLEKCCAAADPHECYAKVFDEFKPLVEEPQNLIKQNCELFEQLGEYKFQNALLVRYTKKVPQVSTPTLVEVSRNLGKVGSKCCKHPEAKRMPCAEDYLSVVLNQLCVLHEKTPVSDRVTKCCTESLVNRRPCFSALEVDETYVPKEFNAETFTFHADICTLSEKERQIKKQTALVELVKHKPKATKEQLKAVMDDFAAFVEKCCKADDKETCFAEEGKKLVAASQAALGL
For data set [4], the system named is L. major intracellular amastigotes. Briefly: Intracellular amastigote assay. The following applies: read-out: Intracellular Amastigote EC50; Leishmania major, THP-1 host, 72 h. It counts as cell-based.
The next data set relates to THP-1 cells. Description: Host THP-1 cell cytotoxicity. It counts as cell-based, human. The note with it: for cytotoxicity to the host THP-1 cells (GI): primary screen, single point 10 μM; for CC50: read-out: Host (THP-1) cell CC50, UCSF assay.
Data set [5] concerns L. donovani intracellular amastigotes infecting B10R cells. Briefly: Intracellular amastigote assay. It counts as cell-based. The following applies: read-out: L. donovani EC50; intracellular amastigotes infecting B10R cells (UCSD assay), average of two biological replicates.
The format of data set [6] is in vitro ADME. The note with it: microsomes.
The next data set concerns HepG2 cells. Description: HepG2 cytotoxicity. It counts as cell-based.
Data set [7] can be described thus: Artificial membrane permeability. The note with it: pH 7.4. It counts as in vitro ADME.
The nature of data set [8]: Kinetic aqueous solubility by CLND. It counts as physicochemical. The following applies: high-throughput CLND.
The subject of data set [9] is L. donovani promastigotes. Description: Promastigote assay. The note with it: read-out: Extracellular promastigote EC50; Leishmania donovani, 72 h. It counts as cell-based.
The test system of another data set is host B10R cells. It counts as cell-based.
The next data set in a line: Property forecast index. It counts as physicochemical. The note with it: ChromLogD7.4 + Aromatic rings.
A further data set can be described thus: FaSSIF solubility. It counts as physicochemical. The following applies: racemate.
A short description of the next data set: Plasma protein binding. It counts as in vitro ADME. The following applies: racemate, rapid equilibrium dialysis. In general terms: In equilibrium dialysis only unbound substance equilibrates across the membrane.
The nature of another data set: Whole blood stability. The following applies: criterion: no % reduction over 120 min; racemate. It counts as in vitro ADME.
The test system of data set [10] is intramacrophage Leishmania. The following applies: read-out: intramacrophage EC50; cited from earlier work.

≈ marks a conversion by molar mass, not a printed value. A value given as a limit tells only on which side of the number the result lay.

A word on the EC50: it is the concentration at which the effect is half-maximal. Consider `C[C@@H]1[C@H](O)[C@@H](C)/C=C/C=C/C=C/C=C/C=C/C=C/C=C/[C@H](O[C@@H]2O[C@H](C)[C@@H](O)[C@H](N)[C@@H]2O)C[C@@H]2O[C@](O)(C[C@@H](O)C[C@@H](O)[C@H](O)CC[C@@H](O)C[C@@H](O)CC(=O)O[C@H]1C)C[C@H](O)[C@H]2C(=O)O` [amphotericin B], for which the “concentration cytotoxic to the host cell” value in the data set on host macrophage is 5.0 µM. For the same molecule, the EC50 in data set [1] came to 200 nM.

Consider `COc1ccc(N2C(=O)c3[nH]nc(CC(C)C)c3C2c2ccc(C)cc2)cc1` (stereo not shown) [CMLD007430], for which, in data set [2], the “inhibition of parasite growth (primary screen)” value (from here on “inhibition of parasite growth”) is 0%.

As a reminder, the CC50 is the concentration that lowers cell viability or growth by half. With `COc1ccc(N2C(=O)c3[nH]nc(CC(C)C)c3C2c2ccc(F)cc2)cc1` (stereo not shown) [Compound 1], the EC50 is 15800 nM in the data set on host THP-1 macrophages; 4400 nM in the data set on L. major promastigotes; 2500 nM in [3]; 1300 nM in data set [4]; 820 nM in data set [5]; 63100 nM with HepG2 cells. The EC50 in data set [9] was determined as 2000 nM; in data set [2], 2500 nM. Besides, on human serum albumin, the “HSA Binding” value was 96.4%. In addition, in the data set with THP-1 cells, the “cytotoxicity to the host THP-1 cells (GI)” value is reported as less than 13 % GI. In addition, the CC50 in the data set with THP-1 cells and with host B10R cells was greater than 20000 nM each time. Moreover, the “Microsomal stability (mouse) Clint” value in [6] is less than 3.4 mL/min/g. The “Microsomal stability (mouse) t1/2” value in data set [6] is reported as greater than 20 min. Besides, the AMP in data set [7] came out at 345 nm/s. Further, in data set [8], the “Solubility (CLND)” value came out at 107 µM (≈ 40.6 µg/mL). Moreover, the “inhibition of parasite growth” value in [2] is given as greater than 99%. Besides, in the data set “Property forecast index”, the PFI turned out to be 8.4. Further, in “FaSSIF solubility”, the FaSSIF solubility was 130 µg/mL. For the same molecule, the Plasma protein binding in the data set “Plasma protein binding” stood at 97.5%. In addition, the Whole blood stability entry in the data set “Whole blood stability” is “Pass”.

Consider `O=C(Nc1ccc(F)c(-c2ccn3c(N4CCOCC4)cnc3n2)c1)N1CCCC1` [GSK3494245], for which the EC50 in [10] is 1600 nM.

Consider `C[C@H]1CN(c2n[nH]c3nc(N[C@H]4CC[C@H](NS(=O)(=O)CCC(F)(F)F)CC4)ncc23)CCO1` [GSK3186899], for which the EC50 in data set [10] is 1400 nM.

For `COc1ccc(N2C(=O)c3[nH]nc(CC(C)C)c3C2c2ccccc2)cc1` (stereo not shown) [Compound 2], the EC50 was found to be 31600 nM in the data set with host THP-1 macrophages; 4200 nM in the data set on L. major promastigotes; 3200 nM in data set [3]; 1700 nM in data set [4]; 79400 nM with HepG2 cells; 2400 nM in [9]. Moreover, the half-maximal effective concentration (EC50) in data set [2] amounted to 3700 nM. Besides, on human serum albumin, the “HSA Binding” value is 95.8%. Further, the “cytotoxicity to the host THP-1 cells (GI)” value in the data set with THP-1 cells is less than 13 % GI. Further, the CC50 with THP-1 cells is greater than 20000 nM. The AMP in [7] amounted to 370 nm/s. The “Solubility (CLND)” value in data set [8] turned out to be 90 µM (≈ 32.5 µg/mL). Also, the “inhibition of parasite growth” value in data set [2] was greater than 99%. Besides, the PFI in “Property forecast index” is 8.4.
